Measured values published in patent US20050214945A1, “Htlv-I tax induced killing of p53 null cancer cells” (Eastern Virginia Medical School, priority 2002, published 2005).

Legend:
REF52 cells [1] = assay: UV-induced apoptosis, Vybrant Apoptosis Assay; format: cell-based, rat; conditions: Tax-expressing REF52 following UV exposure
Experimental: (§1) Tax-expressing cells were treated with different UV doses (0, 20 and 50 j/m^2) and assessed at different time points post-transduction (4, 8, 12 and 24 hrs). Cells were separated into living, necrotic or apoptotic populations using the triple source fluorescent labeling, Vybrant Apoptosis Assay kit (Molecular Probes) according to the manufacturer's recommendations.
In addition to repair, at least two key events occured in the UV-induced cellular DNA damage response. These are initiation of cell cycle arrest and induction of apoptosis. The ability of Tax-expressing REF52 cells to undergo cell cycle arrest and apoptosis was assessed. Tax-expressing and control cells were subjected to UV irradiation and examined for apoptotic events and cell cycle profile. Prior to exposure to UV, the percent of non-apoptotic, apoptotic and necrotic cells were examined. The three populations were identified using the Vybrant assay. […] The same results were seen using several Tax-expressing cells including GM00010B (data not shown).

[2] = system: Hela cells and p53 deleted cell line; assay: Cytokinesis block cell cycle progression assay in p53 repressed/deleted cells; format: cell-based; conditions: exposed to UV, cytochalasin B, 36 hours; partial (25%) and 100% transduction
Experimental: (§2) Asynchronous cell cultures were seeded on coverslips and exposed to UV irradiation and allowed to recover for 1 hour. Cytochalasin B was added and the cultures incubated for 36 hours. The coverslips were fixed with paraformaldehyde/methanol and stained with propidium iodide. Slides were prepared and cell nuclei examined by microscopy. Bi-nucleus cells were considered dividing.
To test this hypothesis, the cell cycle arrest response was examined in Tax-expressing and control p53−/− cells. Tax-expressing and control Hela cell groups were subjected to the cytokinesis block cell cycle progression assay as described above. Each cell group was exposed to UV and incubated with cytochalasin B one hour later. The cells were examined after 36 hours for the presence of binucleated dividing cells. Hela cells transduced to express Tax at 25% efficiency. Tax-expressing Hela cells were identified by immunofluorescence using anti-Tax mouse monoclonal antibody and FITC-conjugated anti-mouse secondary antibody. The nuclei were stained with propidium iodide. Hela and Tax-expressing Hela formed binuclei indicating normal division. […] In experiments using 100% transduction of Tax, 1000 cell events were counted.

p53−/− cells [3] = assay: Percent surviving cells after sublethal UV; format: cell-based; conditions: 24 hours after treatment
Experimental: (§3) It was reasoned that if Tax-expressing cells display impaired damage response in a p53 independent manner then cells both deleted for p53 and expressing Tax would be more prone to apoptotic cell death in response to UV. To test this hypothesis, the apoptotic response of both Tax-expressing and control p53−/− cells was examined. Tax-expressing and control cells were exposed to sublethal doses of UV and examined for percent surviving cells 24 hours after treatment.

[4] = system: p53 mutant background (HeLa); assay: Percent surviving cells after sublethal UV; format: cell-based; conditions: 24 hours after treatment, vs control cells
Experimental: as §3

p53 and p21 = assay: Immunoblot of p53 and p21 after UV; format: cell-based, rat; conditions: UV-induced DNA damage; Tax-expressing and control REF52
Experimental: Approximately 2×10^6 cells were harvested and proteins extracted with […] Mammalian Protein Extraction Reagent (Pierce). 50 μl of 4× Laemmli buffer was added to the lysate. […] of the lysate was electrophoresed through a 10% SDS polyacrylamide gel. The proteins were electroblotted onto an Immobolin-P membrane (Millipore), and probed with the indicated primary antibody and the appropriate secondary alkaline phosphatase-conjugated antibody. Immunoreactivity was detected via Western Star chemiluminescence protein detection (Tropix).
To further analyze the p53 response in Tax-expressing cells, both Tax-expressing and control REF52 cells were examined for stabilization of steady-state p^53 and transient induction of p21. Since induction of p21 is a key event in p53-mediated cell cycle arrest, analysis of the p21 levels in Tax-expressing cells could determine the integrity of this signal. Tax-expressing and control cells were exposed to UV and harvested for western analysis pre-exposure and at eight hours and twenty four hours post exposure. […] Thus, one p53-dependent signal for cell cycle arrest, transient induction of p21, was intact.

REF52 cells [5] = assay: Global nucleotide excision repair assay (unscheduled DNA synthesis, BrdU); format: cell-based, rat; conditions: G1 synchronized cells, UV 20 j/m^2, BrdU
Experimental: REF52 cells were seeded onto glass coverslips and transduced to express Tax at 25% efficiency. Sub-confluent Tax-expressing REF52 cells were cultured in 0.5% serum for 48 hrs, to synchronize at G0, prior to irradiation. The cells were released from G0 with addition of complete medium. At four hours post-release, the cells were irradiated with UV light (20 j/m^2) using a UV chamber-GS Gene Linker (Bio-Rad) and incubated for 30 min with 10 μM BrdU containing medium. The cells were then washed 4× with PBS and fixed in 4% paraformaldehyde. Cells were permeabilized with 2 minutes incubation in 100% methanol and washed 4× with PBS. The prepared cells were then reacted with both anti-Tax and anti-BrdU in PBS (containing 2% BSA). Primary antibodies were removed by washing 4× with 1% Tween 20 in PBS (PBS-Tween). Secondary conjugated antibodies were reacted for one hour at room temperature (RT). The cells were then washed with PBS-Tween and the slips were inverted onto slides with Vecta Shield (Vector Laboratories, CA). Incorporation of BrdU into the nucleus of cells at G1 corresponded to unscheduled repair synthesis.
A failure in damage-induced cell cycle arrest would result in reduced repair efficiency and could explain the Tax-associated NER deficiency. […]

REF52 cells [6] = assay: Cytokinesis block cell cycle progression assay; format: cell-based, rat
Experimental: as §2
Next, the cell cycle response of Tax-expressing cells was measured. REF52 and REF+Tax cells were subjected to the cytokinesis block cell cycle arrest assay to determine the intactness of the damage-induced checkpoint. In this assay, asynchronous cells were exposed to UV and incubated with cytochalasin B one hour later. The cell population was examined 36 hours later and assessed for division events. […] In contrast REF52 cells exposed to UV light initiated cell cycle arrest and presented a predominately (>90%) mononuclear cell population. However, Tax-expressing REF52 cells, exposed to UV, presented nearly 75% of the population as binucleated cells indicating a failure to arrest in cell cycle in response to UV-induced DNA damage. For each data point, 1000 cells were analyzed.

p53 = assay: Nuclear accumulation of p53 after UV (immunostaining); format: cell-based, rat; conditions: Tax-expressing REF52 in response to UV damage
Excerpt: A key player in initiation of the UV-repair response and activation of cell cycle arrest is p53. Activation of p53 is signaled by an accumulation of P53 in the nucleus of cells exposed to UV light. To examine whether Tax-expressing cells display this early p53 response, REF52 cells were transduced with suboptimal viral titers to produce an estimated 50% transduction efficiency. The cells were exposed to UV and examined for nuclear expression of p53.

REF52 cells [7] = assay: Host cell reactivation assay (nucleotide excision repair capacity); format: cell-based, rat; conditions: Tax-expressing REF52 vs control GFP-expressing REF52; UV-damaged CAT reporter
Experimental: pSV2-CAT reporter plasmid was damaged ex vivo by exposure to 1000 j/m^2 of Uv-C light using a UV chamber-GS Gene Linker (Bio-Rad). REF52 and XP-A cells were transfected with 4 μg of UV-irradiated or non-irradiated pSV2-CAT plasmid together with an undamaged reporter plasmid (pMSV-Luc), and with or without Tax plasmid. Forty-eight hours after calcium phosphate transfection, cells were pelleted and resuspended in 250 μl of 250 mM Tris pH8.0. For the Luciferase assay, 25 μl of the total cellular extract was added to 50 μl of luciferase substrate. Luciferase activity was quantitated in a Luminometer. Cat assays were performed in parallel with the same cells as described (Semmes, O., et al., J. Virol. 66(12):7183-92 (1992)). Cat activity was normalized to luciferase activity of the same extract. Repair activity was calculated by setting normalized cat activity from cells cotransfected with non-irradiated pSV2-CAT to 100%. The repair activity of duplicate cells cotransfected with irradiated pSV2-CAT was reported as a percentage of that activity.
In examining the biological response of Tax-expressing cells to UV-induced DNA damage, efficient Nucleotide Excision Repair (NER) ability was tested. The Host Cell Reactivation Assay (HCRA) was used as a measure of NER capacity in Tax-expressing REF52 cells. […] Thus, Tax expression results in reduced NER capacity as measured by HCRA.

p53+/+ cells (REF52) = assay: Percent surviving cells after sublethal UV; format: cell-based, rat; conditions: 24 hours after treatment, vs control cells
REF52 and p53d cells = assay: Flow cytometry cell cycle analysis (G1 checkpoint) after UV; format: cell-based; conditions: synchronized at G0, UV treatment, 20% serum; wild type or deleted p53 background
Experimental: For cell cycle analysis, cells were collected by gentle scraping following a rapid EDTA rinse and concentrated by low speed centrifugation and washed in 1×PBS, and fixed with cold 70% ethanol. Cells were stained with a PI solution (PBS 1×, RNase A [10 μg/ml], and Propidium Iodide [50 μg/ml]) followed by cell sorting analysis. FACS data acquired were analyzed by CellQuest software.
To determine whether the failure in cell cycle arrest was due to a failed G1 checkpoint, cells were synchronized at G0 by serum starvation. The cells were then cultured in 20% serum to stimulate return to cell cycle following UV treatment. Cell cycle was determined by total DNA content as described above. […] This was true for either a wild type or deleted p53 background. Therefore, the failure in cell cycle arrest is due at least in part to a failed G1 arrest.

p53−/− cells [8] = assay: UV-induced apoptosis, Vybrant Apoptosis Assay; format: cell-based; conditions: UV 20 and 50 J/m^2, 12 and 24 hours
Experimental: as §1
The early apoptotic response of Tax-expressing p53−/− cells was also observed. In this series of experiments the cell groups were exposed to 0 J/m^2, 20 J/m^2 and 50 J/m^2 and apoptosis measured at 12 and 24 hours (FIG. 7). […] This level of UV-induced apoptosis is equivalent to that seen in cells defective in NER (FIG. 3).

## Tax
REF52 cells [1]
  apoptotic response to DNA damage: normal apoptotic response
[2]
  percent of binucleated cells: > 72%
p53−/− cells [3]
  cell death in response to UV exposure: significant cell death
[4]
  percent of surviving cells: no decreased percent of surviving cells
p53 and p21
  steady-state protein levels of p53: stabilization of steady-state protein levels of p53
REF52 cells [5]
  UV-induced unscheduled DNA synthesis: indistinguishable from control cells
REF52 cells [6]; exposed to UV, cytochalasin B, examined 36 hours later, 1000 cells per data point
  binucleated cells: ~75%
REF52 cells [6]; unexposed to UV
  binucleated cell profile without UV: same profile as in the absence of Tax
p53
  nuclear accumulation of P53: strong nuclear accumulation of P53
REF52 cells [7]
  NER capacity: significantly reduced
p53+/+ cells (REF52)
  percent of surviving cells: no decreased percent of surviving cells
REF52 and p53d cells
  percentage of cells leaving G1: consistent and significant increase
p53−/− cells [8]
  apoptosis: Significant apoptosis
